In US20240300932A1, “N-PHENYLIMINE DERIVATIVE AND PREPARATION METHOD AND USE THEREOF” (Guizhou University, priority 2023, published 2024):

What was measured:
Assay in all cases: Post-emergence herbicidal activity test (stem and leaf spray, pot culture)
Type in all cases: in vivo
Conditions in all cases: 3 weeks after spraying
Abutilon theophrasti = tested on: Abutilon theophrasti
Procedure, shortened: (§1)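 Activity is given as a 0–5 grade of fresh weight growth control, scored three weeks after a single stem-and-leaf spray. Weeds in farmland loam were treated at the 2- to 3-leaf stage at 10, 5 and 2.5 g/mu, with methyl oleate added as synergist.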

Echinochloa crusgalli = tested on: Echinochloa crusgalli
Procedure, shortened: as §1

Portulaca oleracea = tested on: Portulaca oleracea
Procedure, shortened: as §1

Setaria viridis = tested on: Setaria viridis
Procedure, shortened: as §1

Amaranthus retroflexus = tested on: Amaranthus retroflexus
Procedure, shortened: as §1

Trifoliumre pensL. = tested on: Trifoliumre pensL.
Procedure, shortened: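 Pot-grown weeds in loam (pH 7), greenhouse at 20–30 °C, sprayed once post-emergence at the 2–3-leaf stage. Compound in acetone with Tween 80 plus methyl oleate oil (1.5 L/ha), applied at 10, 5 and 2.5 g/mu by spray tower. Effect scored 3 weeks after spraying, averaged over three repeats.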

Row | Structure (SMILES) | Post-emergence herbicidal activity, A. theophrasti (grade) (Abutilon theophrasti; dosage 2.5 g/mu) | Post-emergence herbicidal activity, A. theophrasti (grade) (Abutilon theophrasti; dosage 5 g/mu) | Post-emergence herbicidal activity, A. theophrasti (grade) (Abutilon theophrasti; dosage 10 g/mu) | Post-emergence herbicidal activity, E. crusgalli (grade) (Echinochloa crusgalli; dosage 2.5 g/mu) | Post-emergence herbicidal activity, E. crusgalli (grade) (Echinochloa crusgalli; dosage 5 g/mu) | Post-emergence herbicidal activity, E. crusgalli (grade) (Echinochloa crusgalli; dosage 10 g/mu) | Post-emergence herbicidal activity, P. oleracea (grade) (Portulaca oleracea; dosage 2.5 g/mu) | Post-emergence herbicidal activity, P. oleracea (grade) (Portulaca oleracea; dosage 5 g/mu) | Post-emergence herbicidal activity, P. oleracea (grade) (Portulaca oleracea; dosage 10 g/mu) | Post-emergence herbicidal activity, S. viridis (grade) (Setaria viridis; dosage 2.5 g/mu) | Post-emergence herbicidal activity, S. viridis (grade) (Setaria viridis; dosage 5 g/mu) | Post-emergence herbicidal activity, S. viridis (grade) (Setaria viridis; dosage 10 g/mu) | Post-emergence herbicidal activity, A. retroflexus (grade) (Amaranthus retroflexus; dosage 2.5 g/mu) | Post-emergence herbicidal activity, A. retroflexus (grade) (Amaranthus retroflexus; dosage 5 g/mu) | Post-emergence herbicidal activity, A. retroflexus (grade) (Amaranthus retroflexus; dosage 10 g/mu) | Post-emergence herbicidal activity, Trifoliumre pensL. (grade) (Trifoliumre pensL.; dosage 2.5 g/mu) | Post-emergence herbicidal activity, Trifoliumre pensL. (grade) (Trifoliumre pensL.; dosage 5 g/mu) | Post-emergence herbicidal activity, Trifoliumre pensL. (grade) (Trifoliumre pensL.; dosage 10 g/mu)
1 | O=C1C2=C(CCCC2)C(=O)N1c1cc(OCc2nc(-c3ccco3)no2)c(Cl)cc1F [Compound A22] | 5 (Grade 5: the growth control rate is greater than or equal to 85%) | 5 (Grade 5: the growth control rate is greater than or equal to 85%) | 5 (Grade 5: the growth control rate is greater than or equal to 85%) | 1 (Grade 1: the growth control rate is greater than or equal to 5% and less than 20%) | 2 (Grade 2: the growth control rate is greater than or equal to 20% and less than 40%) | 3 (Grade 3: the growth control rate is greater than or equal to 40% and less than 60%) | 4 (Grade 4: the growth control rate is greater than or equal to 60% and less than 85%) | 5 (Grade 5: the growth control rate is greater than or equal to 85%) | 5 (Grade 5: the growth control rate is greater than or equal to 85%) | 2 (Grade 2: the growth control rate is greater than or equal to 20% and less than 40%) | 3 (Grade 3: the growth control rate is greater than or equal to 40% and less than 60%) | 4 (Grade 4: the growth control rate is greater than or equal to 60% and less than 85%) | 5 (Grade 5: the growth control rate is greater than or equal to 85%) | 5 (Grade 5: the growth control rate is greater than or equal to 85%) | 5 (Grade 5: the growth control rate is greater than or equal to 85%) | 4 (Grade 4: the growth control rate is greater than or equal to 60% and less than 85%) | 5 (Grade 5: the growth control rate is greater than or equal to 85%) | 5 (Grade 5: the growth control rate is greater than or equal to 85%)
2 | CCCCCCCCC(=O)Nc1cc(N2C(=O)C3=C(CCCC3)C2=O)c(F)cc1Cl [Compound D7, N-(2-chloro-5-(1,3-dioxo-1,3,4,5,6,7-hexahydro-2H-isoindole-2-yl)-4-fluorophenyl)nonanamide] | – | – | 5 (Grade 5: the growth control rate is greater than or equal to 85%) | – | – | 3 (Grade 3: the growth control rate is greater than or equal to 40% and less than 60%) | – | – | 5 (Grade 5: the growth control rate is greater than or equal to 85%) | – | – | 4 (Grade 4: the growth control rate is greater than or equal to 60% and less than 85%) | – | – | 5 (Grade 5: the growth control rate is greater than or equal to 85%) | – | – | 5 (Grade 5: the growth control rate is greater than or equal to 85%)
3 | O=C1C2=C(CCCC2)C(=O)N1c1cc(OCc2nc(-c3ccc(Cl)cc3F)no2)c(Cl)cc1F [Compound A7] | 5 (Grade 5: the growth control rate is greater than or equal to 85%) | 5 (Grade 5: the growth control rate is greater than or equal to 85%) | 5 (Grade 5: the growth control rate is greater than or equal to 85%) | 1 (Grade 1: the growth control rate is greater than or equal to 5% and less than 20%) | 2 (Grade 2: the growth control rate is greater than or equal to 20% and less than 40%) | 3 (Grade 3: the growth control rate is greater than or equal to 40% and less than 60%) | 4 (Grade 4: the growth control rate is greater than or equal to 60% and less than 85%) | 5 (Grade 5: the growth control rate is greater than or equal to 85%) | 5 (Grade 5: the growth control rate is greater than or equal to 85%) | 2 (Grade 2: the growth control rate is greater than or equal to 20% and less than 40%) | 3 (Grade 3: the growth control rate is greater than or equal to 40% and less than 60%) | 4 (Grade 4: the growth control rate is greater than or equal to 60% and less than 85%) | 5 (Grade 5: the growth control rate is greater than or equal to 85%) | 5 (Grade 5: the growth control rate is greater than or equal to 85%) | 5 (Grade 5: the growth control rate is greater than or equal to 85%) | 4 (Grade 4: the growth control rate is greater than or equal to 60% and less than 85%) | 5 (Grade 5: the growth control rate is greater than or equal to 85%) | 5 (Grade 5: the growth control rate is greater than or equal to 85%)
4 | O=C1C2=C(CCCC2)C(=O)N1c1cc(OCc2nc(-c3cccs3)no2)c(Cl)cc1F [Compound A19] | 5 (Grade 5: the growth control rate is greater than or equal to 85%) | 5 (Grade 5: the growth control rate is greater than or equal to 85%) | 5 (Grade 5: the growth control rate is greater than or equal to 85%) | 1 (Grade 1: the growth control rate is greater than or equal to 5% and less than 20%) | 2 (Grade 2: the growth control rate is greater than or equal to 20% and less than 40%) | 3 (Grade 3: the growth control rate is greater than or equal to 40% and less than 60%) | 4 (Grade 4: the growth control rate is greater than or equal to 60% and less than 85%) | 5 (Grade 5: the growth control rate is greater than or equal to 85%) | 5 (Grade 5: the growth control rate is greater than or equal to 85%) | 2 (Grade 2: the growth control rate is greater than or equal to 20% and less than 40%) | 3 (Grade 3: the growth control rate is greater than or equal to 40% and less than 60%) | 4 (Grade 4: the growth control rate is greater than or equal to 60% and less than 85%) | 5 (Grade 5: the growth control rate is greater than or equal to 85%) | 5 (Grade 5: the growth control rate is greater than or equal to 85%) | 5 (Grade 5: the growth control rate is greater than or equal to 85%) | 4 (Grade 4: the growth control rate is greater than or equal to 60% and less than 85%) | 5 (Grade 5: the growth control rate is greater than or equal to 85%) | 5 (Grade 5: the growth control rate is greater than or equal to 85%)
5 | COc1ccccc1C(=O)COc1cc(N2C(=O)C3=C(CCCC3)C2=O)c(F)cc1Cl [Compound C6, 2-(4-chloro-2-fluoro-5-(2-oxo-2-(2-methoxyphenyl)ethoxy)phenyl)-4,5,6,7-tetrahydro-1H-isoindole-1,3(2H)-dione] | 5 (Grade 5: the growth control rate is greater than or equal to 85%) | 5 (Grade 5: the growth control rate is greater than or equal to 85%) | 5 (Grade 5: the growth control rate is greater than or equal to 85%) | 1 (Grade 1: the growth control rate is greater than or equal to 5% and less than 20%) | 2 (Grade 2: the growth control rate is greater than or equal to 20% and less than 40%) | 3 (Grade 3: the growth control rate is greater than or equal to 40% and less than 60%) | 5 (Grade 5: the growth control rate is greater than or equal to 85%) | 5 (Grade 5: the growth control rate is greater than or equal to 85%) | 5 (Grade 5: the growth control rate is greater than or equal to 85%) | 2 (Grade 2: the growth control rate is greater than or equal to 20% and less than 40%) | 3 (Grade 3: the growth control rate is greater than or equal to 40% and less than 60%) | 4 (Grade 4: the growth control rate is greater than or equal to 60% and less than 85%) | 5 (Grade 5: the growth control rate is greater than or equal to 85%) | 5 (Grade 5: the growth control rate is greater than or equal to 85%) | 5 (Grade 5: the growth control rate is greater than or equal to 85%) | 5 (Grade 5: the growth control rate is greater than or equal to 85%) | 5 (Grade 5: the growth control rate is greater than or equal to 85%) | 5 (Grade 5: the growth control rate is greater than or equal to 85%)
